Results published in patent publication US20240034987A1, “SUPPLEMENTED SERUM-FREE MEDIA FOR CULTURED MEAT PRODUCTION” (Trustees of Tufts College, priority 2020, published 2024).
Entries after “also recorded” stand apart in the source; their conditions may differ.

System: bovine satellite cells (BSCs)
Test: Short-term growth analysis (3 and 4 days, dsDNA quantitation, brightfield imaging)
Type: cell-based
Conditions: for BSC proliferation compared to B8 media alone: supplement in B8, range of concentrations, growth over four days; for FGF-2 concentration to which medium could be lowered without significantly affecting growth: vs 40 ng/mL control
Procedure: Homemade B8 medium was prepared using store-bought components and a previously described formulation and method of preparation. See, Kuo, H. H. et al. Negligible-Cost and Weekend-Free Chemically Defined Human iPSC Culture. Stem Cell Reports 14, 256-270. Table 1 includes the formulation. Additionally, HiDef-B8 medium aliquots were generously provided by Defined Bioscience (Defined Bioscience #LSS-201, San Diego, CA, USA) and added DMEM/F12 with 1% antibiotic/antimycotic. Short term BSC growth (3 and 4 days) was analyzed for mixtures of serum-containing and serum-free media, as well as for pure B8 media with reduced growth factor concentrations and/or with the addition of various media supplements (Table 2). Briefly, BSCs were thawed (passage number <2) and plated in BSC-GM on 96-well tissue-culture plastic plates for each timepoint at a density of 2,500 cells/cm^2 with 0.25 ug/cm^2 iMatrix recombinant laminin-511. After 24 hours, BSC-GM was removed, cells were washed 1× with DPBS, and new media (e.g., B8+/−supplementation) was added. A list of supplements and concentrations can be found in Table 2. Media was changed on day 3, and on days 3 and 4 cells were imaged, media was aspirated from appropriate plates, and plates were frozen at −80° C. Once all timepoints were frozen, cell number was analyzed using a FluoReporter dsDNA quantitation kit (ThermoFisher #F2962) according to the recommended protocol and with fluorescence readings performed on a Synergy H1 microplate reader (BioTek Instruments, Winooski, VT, USA) using excitation and emission filters centered at 360 and 490 nm, respectively. Cell number at 3 and 4 days was analyzed relative to pure B8 or HiDef media.

Molecule | BSC proliferation compared to B8 media alone | other results
CCCCCCCC/C=C\CCCCCCCC(=O)O [oleic acid, reference compound] | significantly improved | growth vs B8 control on day 4 (tested alone in B8, day 4): no significant difference
NCCO [ethanolamine, reference compound] | inconsequential | –
FGF-2: fibroblast growth factor, component of B8 and Beefy-9, baseline 40 ng/mL | – | effect of complete removal of FGF-2 on cell growth and morphology (0 ng/mL FGF-2 in the media): significantly affects cell morphology; also recorded: significantly affected; effect of FGF-2 reduction on cell morphology (Beefy-9 with 5 ng/mL FGF-2, three days): did not affect morphology; FGF-2 concentration to which medium could be lowered without significantly affecting growth (in B8, four days): 5 ng/mL; FGF-2 concentration to which medium could be lowered without significantly affecting growth (in Beefy-9, four days): 1.25 ng/mL
IL-6: interleukin-6, media supplement (BioRad PBP021) | significantly improved | –
CCCCC/C=C\C/C=C\CCCCCCCC(=O)O [linoleic acid, reference compound] | significantly improved | –
hepatocyte growth factor: hepatocyte growth factor, media supplement tested in B8 | inconsequential | –
COc1cc(/C=C/C(=O)CC(=O)/C=C/c2ccc(O)c(OC)c2)ccc1O [curcumin, reference compound] | significantly improved | –
